Data published in patent US9603833B2, “Benzene or thiophene derivative and use thereof as VAP-1 inhibitor” (R-Tech Ueno, Ltd., priority 2008, dated 2017).
Where a name gives a salt, the structure may show the parent alone.

Columns and labels:
Assay type in all cases: biochemical
[1] = target: human VAP-1 enzyme (SSAO) (Homo sapiens (Human), UniProt Q16853); assay: Inhibitory effect on human VAP-1 enzyme (SSAO), radiochemical-enzyme assay using 14C-benzylamine; conditions: human VAP-1 expressed in a cell, cell extract; 14C-benzylamine 1×10^−5 mol/L; 37° C., 2 hours
Chain of human VAP-1 enzyme (SSAO) (Q16853 whole entry): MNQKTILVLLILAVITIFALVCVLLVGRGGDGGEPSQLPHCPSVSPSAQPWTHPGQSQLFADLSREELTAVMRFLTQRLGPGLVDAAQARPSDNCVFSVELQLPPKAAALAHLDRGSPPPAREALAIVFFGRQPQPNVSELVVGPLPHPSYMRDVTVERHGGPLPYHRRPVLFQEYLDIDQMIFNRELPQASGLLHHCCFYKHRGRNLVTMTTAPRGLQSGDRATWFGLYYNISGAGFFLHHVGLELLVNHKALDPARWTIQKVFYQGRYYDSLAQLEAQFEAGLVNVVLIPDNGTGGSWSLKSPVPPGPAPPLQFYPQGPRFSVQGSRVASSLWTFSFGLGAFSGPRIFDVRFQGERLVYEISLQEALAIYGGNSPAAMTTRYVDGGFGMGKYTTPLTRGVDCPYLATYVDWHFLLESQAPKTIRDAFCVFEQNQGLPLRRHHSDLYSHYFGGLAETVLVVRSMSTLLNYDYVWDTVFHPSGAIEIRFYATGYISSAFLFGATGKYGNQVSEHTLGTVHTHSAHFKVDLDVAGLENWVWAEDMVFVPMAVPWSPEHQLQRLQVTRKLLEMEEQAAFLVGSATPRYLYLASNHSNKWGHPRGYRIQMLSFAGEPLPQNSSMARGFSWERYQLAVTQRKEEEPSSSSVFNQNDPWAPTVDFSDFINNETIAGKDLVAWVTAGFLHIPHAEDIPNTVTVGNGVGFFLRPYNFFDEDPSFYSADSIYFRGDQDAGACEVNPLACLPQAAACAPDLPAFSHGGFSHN
Experimental: (§1) The compounds of the present invention obtained in Production Examples were examined for the inhibitory effect on human and rat VAP-1 enzyme (SSAO) by the following method.
(§2) The VAP-1 enzyme (SSAO) activity in both human and rat was measured by a radiochemical-enzyme assay using ^14C-benzylamine as an artificial substrate. Human or rat VAP-1 was cloned from the cDNA library and expressed in a cell. The cell extract was preincubated with a test compound solution (final concentration 1×10^−7-1×10^−10 mol/L) at room temperature for 20 minutes. Then, ^14C-benzylamine (final concentration 1×10^−5 mol/L) was added, and the mixture was incubated at a final volume of 200 μL at 37° C. for 2 hours. The enzyme reaction was stopped by addition of 2 mol/L (200 μL) citric acid. The oxidation product was extracted with 1 mL toluene/ethyl acetate (1:1), and the radioactivity thereof was measured by a liquid scintillation counter.

rat VAP-1 enzyme (SSAO) = rat VAP-1 enzyme (SSAO) (Rattus norvegicus (Rat), UniProt O08590); assay: Inhibitory effect on rat VAP-1 enzyme (SSAO), radiochemical-enzyme assay using 14C-benzylamine; conditions: rat VAP-1 expressed in a cell, cell extract; 14C-benzylamine 1×10^−5 mol/L; 37° C., 2 hours
Chain of rat VAP-1 enzyme (SSAO) (O08590 whole entry): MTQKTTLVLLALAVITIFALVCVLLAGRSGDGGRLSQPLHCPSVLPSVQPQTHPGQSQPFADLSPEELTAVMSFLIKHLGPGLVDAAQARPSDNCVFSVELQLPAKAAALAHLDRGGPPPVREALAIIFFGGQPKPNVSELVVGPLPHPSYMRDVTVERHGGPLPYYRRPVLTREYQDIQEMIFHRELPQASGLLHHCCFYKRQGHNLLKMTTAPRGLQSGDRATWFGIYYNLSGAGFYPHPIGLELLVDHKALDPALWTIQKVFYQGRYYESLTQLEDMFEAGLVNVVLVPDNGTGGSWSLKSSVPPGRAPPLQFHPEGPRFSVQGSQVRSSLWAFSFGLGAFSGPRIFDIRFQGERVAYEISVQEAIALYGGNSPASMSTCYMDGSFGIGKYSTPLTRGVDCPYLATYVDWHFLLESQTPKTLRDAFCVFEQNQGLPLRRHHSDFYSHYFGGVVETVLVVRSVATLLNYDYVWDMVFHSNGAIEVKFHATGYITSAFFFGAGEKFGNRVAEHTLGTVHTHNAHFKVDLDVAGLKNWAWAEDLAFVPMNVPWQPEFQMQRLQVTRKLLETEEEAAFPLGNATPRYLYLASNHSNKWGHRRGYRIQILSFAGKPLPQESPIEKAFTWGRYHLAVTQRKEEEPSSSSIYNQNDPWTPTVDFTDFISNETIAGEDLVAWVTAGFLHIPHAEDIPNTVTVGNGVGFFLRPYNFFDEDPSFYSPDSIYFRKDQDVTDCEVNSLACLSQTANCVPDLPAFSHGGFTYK
Experimental: as §1, §2

human MAO-A = human MAO-A (Homo sapiens (Human), UniProt P21397); assay: Inhibitory effect on human MAO-A, MAO Detection Kit (Fluoro MAO); conditions: gene recombinant human MAO-A; fluorescence at 590 nm; 37° C., 2 hrs; read-out: MAO-A inhibition IC50
Chain of human MAO-A (P21397 whole entry): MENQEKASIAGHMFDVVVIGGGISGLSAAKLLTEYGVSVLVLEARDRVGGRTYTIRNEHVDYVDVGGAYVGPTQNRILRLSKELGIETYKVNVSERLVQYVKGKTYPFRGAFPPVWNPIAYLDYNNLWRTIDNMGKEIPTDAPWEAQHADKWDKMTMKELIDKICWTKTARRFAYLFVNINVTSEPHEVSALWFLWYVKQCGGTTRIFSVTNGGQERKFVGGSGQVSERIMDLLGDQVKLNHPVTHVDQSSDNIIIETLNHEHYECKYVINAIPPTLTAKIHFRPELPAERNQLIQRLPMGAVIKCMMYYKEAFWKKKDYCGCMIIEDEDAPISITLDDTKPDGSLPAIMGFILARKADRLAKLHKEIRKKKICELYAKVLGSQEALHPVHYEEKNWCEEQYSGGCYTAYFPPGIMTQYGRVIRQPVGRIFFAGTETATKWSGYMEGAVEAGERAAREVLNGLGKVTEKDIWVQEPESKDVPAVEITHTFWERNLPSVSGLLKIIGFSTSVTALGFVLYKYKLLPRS
Experimental: (§3) The compounds of the present invention obtained in the Production Examples were examined for the inhibitory effect on human monoamineoxydase enzymes (MAO-A and MAO-B) by the following method.
(§4) Gene recombinant human MAO-A and MAO-B enzymes were purchased from Sigma Ltd. The human MAO-A and MAO-B activities were measured using MAO Detection Kit (Fluoro MAO, Cell Technology Inc.). Assay was performed in a 96-well plate. 1× Reaction buffer (40 μl) was added to each well, and 50 μl (5 mg/ml) of MAO-A or MAO-B was added. Then, test compound solutions (final concentration 1×10^−4-1×10^−10 mol/l) (10 μl) were added and the mixtures were incubated at 37° C. for 20 mins. Reaction cocktail (100 μl) was added, and the mixtures (final volume 200 μl) were incubated at 37° C. for 2 hrs. Thereafter, the fluorescence at 590 nm was detected with an excitation wavelength of 570 nm using a multispectro microplate reader (Varioskan, Thermo Fisher Scientific K.K.).

human MAO-B = human MAO-B (Homo sapiens (Human), UniProt P27338); assay: Inhibitory effect on human MAO-B, MAO Detection Kit (Fluoro MAO); conditions: gene recombinant human MAO-B; fluorescence at 590 nm; 37° C., 2 hrs; read-out: MAO-B inhibition IC50
Chain of human MAO-B (P27338 whole entry): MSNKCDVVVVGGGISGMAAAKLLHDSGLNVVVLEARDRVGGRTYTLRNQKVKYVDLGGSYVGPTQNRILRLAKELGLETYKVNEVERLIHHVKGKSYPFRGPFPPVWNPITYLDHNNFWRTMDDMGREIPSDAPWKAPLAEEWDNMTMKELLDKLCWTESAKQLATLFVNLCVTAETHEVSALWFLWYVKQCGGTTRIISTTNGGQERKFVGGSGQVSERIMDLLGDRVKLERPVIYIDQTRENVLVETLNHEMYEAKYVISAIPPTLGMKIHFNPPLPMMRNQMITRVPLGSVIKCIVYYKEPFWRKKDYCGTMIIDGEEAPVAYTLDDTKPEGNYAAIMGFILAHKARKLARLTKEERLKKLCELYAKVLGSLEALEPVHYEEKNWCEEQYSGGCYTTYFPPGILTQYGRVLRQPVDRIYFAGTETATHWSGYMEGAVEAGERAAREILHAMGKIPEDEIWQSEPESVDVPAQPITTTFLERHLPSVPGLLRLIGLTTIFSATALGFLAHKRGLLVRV
Experimental: as §3, §4

NNC(=O)Cc1ccc(CCc2cccc(N3CCNCC3)n2)cc1 [Production Example 51, 2-{4-[2-(6-piperazin-1-ylpyridin-2-yl)ethyl]phenyl}acetohydrazide tetrahydrochloride]
IC50 [1]: 9.8 nM | IC50 (rat VAP-1 enzyme (SSAO)): 29.4 nM | IC50 (human MAO-A): > 100000 nM | IC50 (human MAO-B): > 100000 nM

NNC(=O)Cc1ccc(CCc2ccnc(N3CCNCC3)c2)cc1 [Production Example 105, 2-{4-[2-(2-piperazin-1-ylpyridin-4-yl)ethyl]phenyl}acetohydrazide tetrahydrochloride]
IC50 [1]: 7.3 nM | IC50 (rat VAP-1 enzyme (SSAO)): 7.2 nM | IC50 (human MAO-A): > 100000 nM | IC50 (human MAO-B): > 100000 nM

CN1CCN(c2ccc(CCc3ccc(CC(=O)NN)cc3)cc2)CC1 [Production Example 35, 2-(4-{2-[4-(4-methylpiperazin-1-yl)phenyl]ethyl}phenyl)acetohydrazide trihydrochloride]
IC50 (human MAO-A): > 100000 nM | IC50 (human MAO-B): > 100000 nM

CC(=O)N1CCN(c2ccc(CCc3ccc(CC(=O)NN)cc3)nc2)CC1 [Production Example 87, 2-(4-{2-[5-(4-acetylpiperazin-1-yl)pyridin-2-yl]ethyl}phenyl)acetohydrazide trihydrochloride]
IC50 [1]: 3.2 nM | IC50 (rat VAP-1 enzyme (SSAO)): 1.4 nM | IC50 (human MAO-A): > 100000 nM | IC50 (human MAO-B): > 100000 nM

CC(=O)N1CCN(c2ccc(CCc3ccc(CC(=O)NN)cc3)nn2)CC1 [Production Example 99, 2-(4-{2-[6-(4-acetylpiperazin-1-yl)pyridazin-3-yl]ethyl}phenyl)acetohydrazide trihydrochloride]
IC50 [1]: 13.5 nM | IC50 (rat VAP-1 enzyme (SSAO)): 2.5 nM

CC(=O)N1CCN(c2ccc(CCc3ccc(CNC(=O)NN)cc3F)nc2)CC1 [Production Example 114, N-(4-{2-[5-(4-acetylpiperazin-1-yl)pyridin-2-yl]ethyl}-3-fluorobenzyl)hydrazinecarboxamide trihydrochloride]
IC50 [1]: 2 nM | IC50 (rat VAP-1 enzyme (SSAO)): 1.2 nM

CC(=O)N1CCN(c2ccc(CCc3cccc(CNC(=O)NN)c3)nc2)CC1 [Production Example 112, N-(3-{2-[5-(4-acetylpiperazin-1-yl)pyridin-2-yl]ethyl}benzyl)hydrazinecarboxamide trihydrochloride]
IC50 [1]: 0.7 nM | IC50 (rat VAP-1 enzyme (SSAO)): 0.7 nM
